Data from ChEMBL document CHEMBL1139344, “Antagonists of the human A(2A) adenosine receptor. 4. Design, synthesis, and preclinical evaluation of 7-aryltriazolo[4,5-d]pyrimidines” (J Med Chem, 2009).

Columns and labels:
Adenosine receptor A2a = Adenosine receptor A2a (Homo sapiens, UniProt P29274); assay: Displacement of radioligand from human recombinant adenosine A2A receptor at 21 degC after 90 mins by cell-based microplate scintillation counting
Adenosine receptor A1 = target: T1, Adenosine receptor A1 (Homo sapiens, UniProt P30542); assay: Displacement of radioligand from human recombinant adenosine A1 receptor at 21 degC after 90 mins by cell-based microplate scintillation counting
T1 sequence (P30542 whole entry): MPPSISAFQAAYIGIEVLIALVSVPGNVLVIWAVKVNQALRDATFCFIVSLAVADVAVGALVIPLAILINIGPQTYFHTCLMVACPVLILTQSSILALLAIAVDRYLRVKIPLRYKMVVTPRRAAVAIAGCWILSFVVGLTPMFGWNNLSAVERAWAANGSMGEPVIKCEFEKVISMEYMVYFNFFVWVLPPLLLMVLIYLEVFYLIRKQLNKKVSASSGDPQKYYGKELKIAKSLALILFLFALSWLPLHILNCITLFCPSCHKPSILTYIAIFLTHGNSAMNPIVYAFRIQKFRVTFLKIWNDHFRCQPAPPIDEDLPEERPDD

Adenosine receptor A2b = target: T2, Adenosine receptor A2b (Homo sapiens, UniProt P29275); assay: Displacement of radioligand from human recombinant adenosine A2B receptor at 21 degC after 60 mins by cell-based microplate scintillation counting
T2 sequence (P29275 whole entry): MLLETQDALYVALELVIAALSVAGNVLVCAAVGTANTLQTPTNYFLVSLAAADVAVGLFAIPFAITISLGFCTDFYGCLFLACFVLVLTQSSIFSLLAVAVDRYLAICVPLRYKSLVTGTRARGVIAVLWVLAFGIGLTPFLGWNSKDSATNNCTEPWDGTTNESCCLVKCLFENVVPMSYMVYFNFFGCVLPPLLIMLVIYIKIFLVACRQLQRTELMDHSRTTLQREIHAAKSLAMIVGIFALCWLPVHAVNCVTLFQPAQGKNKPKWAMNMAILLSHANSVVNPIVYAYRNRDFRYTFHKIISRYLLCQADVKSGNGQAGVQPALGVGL

Adenosine receptor A3 = target: T3, Adenosine receptor A3 (Homo sapiens, UniProt P0DMS8); assay: Displacement of radioligand from human recombinant adenosine A3 receptor at 21 degC after 60 mins by cell-based microplate scintillation counting
T3 sequence (P0DMS8 whole entry): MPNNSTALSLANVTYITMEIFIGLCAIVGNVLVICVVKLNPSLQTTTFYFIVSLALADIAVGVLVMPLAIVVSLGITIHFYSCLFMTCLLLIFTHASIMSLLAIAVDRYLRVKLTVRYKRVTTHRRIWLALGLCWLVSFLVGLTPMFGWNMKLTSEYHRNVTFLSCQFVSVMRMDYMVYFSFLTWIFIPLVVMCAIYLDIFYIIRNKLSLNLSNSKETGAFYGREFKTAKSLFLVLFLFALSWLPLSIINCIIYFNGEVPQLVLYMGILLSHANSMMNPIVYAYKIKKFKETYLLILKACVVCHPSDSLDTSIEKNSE

Adenosine receptor A2a, sequence (P29274 whole entry): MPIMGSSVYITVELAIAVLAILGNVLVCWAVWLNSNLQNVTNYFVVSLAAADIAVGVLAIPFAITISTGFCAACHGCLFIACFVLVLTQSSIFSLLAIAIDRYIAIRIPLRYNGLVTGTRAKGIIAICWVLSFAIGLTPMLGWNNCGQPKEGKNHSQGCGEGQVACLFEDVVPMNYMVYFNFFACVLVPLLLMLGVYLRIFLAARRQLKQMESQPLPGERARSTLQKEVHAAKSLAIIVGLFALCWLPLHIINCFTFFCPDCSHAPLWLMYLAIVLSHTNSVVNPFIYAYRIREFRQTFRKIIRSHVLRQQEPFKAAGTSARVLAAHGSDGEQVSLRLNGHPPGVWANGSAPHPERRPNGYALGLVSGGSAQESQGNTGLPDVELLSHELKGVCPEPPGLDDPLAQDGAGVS

Structure (SMILES) | Ki (Adenosine receptor A2a) | Ki (Adenosine receptor A1) | Ki (Adenosine receptor A2b) | Ki (Adenosine receptor A3)
Nc1nc(-c2ccco2)c2nnn(Cc3cccc(C(F)(F)F)c3)c2n1 | 2.2 nM | 100 nM | 259 nM | 736 nM
Nc1nc(-c2ccco2)c2nnn(Cc3cccc(C(=O)O)c3)c2n1 | 832 nM | 4140 nM | 2110 nM | 3810 nM
Cc1csc(-c2nc(N)nc3c2nnn3Cc2ccccc2F)n1 | 2.2 nM | 203 nM | 53 nM | 1260 nM
Nc1nc(-c2ccco2)c2nnn(CC3CCCCC3)c2n1 | 8.5 nM | 230 nM | 634 nM | 1140 nM
Nc1nc(-c2cccs2)c2nnn(Cc3ccccc3F)c2n1 | 8.2 nM | 154 nM | 248 nM | 871 nM
COc1cccc(Cn2nnc3c(-c4ccco4)nc(N)nc32)c1 | 1.8 nM | 77 nM | 643 nM | 563 nM
Nc1nc(-c2ccco2)c2nnn(Cc3cnccn3)c2n1 | 122 nM | 1170 nM | 1140 nM | 2220 nM
COc1ccccc1Cn1nnc2c(-c3ccco3)nc(N)nc21 | 5.4 nM | 319 nM | 741 nM | 340 nM
Nc1nc(-c2ccco2)c2nnn(Cc3cccc(O)c3)c2n1 | 4 nM | 314 nM | 10 nM | 491 nM
Nc1nc(-c2ccco2)c2nnn(Cc3ccco3)c2n1 | 8.8 nM | 77 nM | 192 nM | 240 nM
Nc1nc(-c2ccco2)c2nnn(Cc3cc(F)ccc3F)c2n1 | 2.2 nM | 98 nM | 128 nM | 450 nM
Nc1nc(-c2ccco2)c2nnn(Cc3ccc4[nH]ccc4c3)c2n1 | 1.1 nM | 27 nM | 59 nM | 606 nM
Nc1nc(-c2ccco2)c2nnn(Cc3ccc4[nH]ncc4c3)c2n1 | 8.6 nM | 190 nM | 206 nM | 2430 nM
Nc1nc(-c2cncs2)c2nnn(Cc3ccccc3F)c2n1 | 31 nM | 894 nM | 423 nM | 1780 nM
Nc1nc(-c2ccco2)c2nnn(Cc3cccc(Cl)c3)c2n1 | 2.3 nM | 76 nM | 160 nM | 269 nM
Nc1nc(-c2ccco2)c2nnn(Cc3ccc(N)c(O)c3)c2n1 | 1.6 nM | 249 nM | 84 nM | 1360 nM
Nc1nc(-c2ccco2)c2nnn(Cc3ccc4[nH]nnc4c3)c2n1 | 11.9 nM | 291 nM | 134 nM | 3010 nM
Nc1nc(-c2ccco2)c2nnn(Cc3ccc(N)c(F)c3)c2n1 | 0.7 nM | 120 nM | 43 nM | 1070 nM

More lines, in order of falling Ki (Adenosine receptor A2a), values ahead:

Ki (Adenosine receptor A2a) | Ki (Adenosine receptor A1) | Ki (Adenosine receptor A2b) | Ki (Adenosine receptor A3) | Structure (SMILES)
241 nM | 4910 nM | 916 nM | > 10000 nM | NCc1ccc(Cn2nnc3c(-c4ccco4)nc(N)nc32)cc1
116 nM | 2530 nM | 443 nM | 2380 nM | CC(=O)Nc1ccc(Cn2nnc3c(-c4ccco4)nc(N)nc32)cc1
8.5 nM | 86 nM | 199 nM | 338 nM | Cc1cnc(-c2nc(N)nc3c2nnn3Cc2ccccc2F)s1
6.6 nM | 400 nM | 383 nM | 168 nM | Nc1nc(-c2ccco2)c2nnn(Cc3ccccc3[N+](=O)[O-])c2n1
3.5 nM | 190 nM | 23 nM | 685 nM | Nc1ccc(Cn2nnc3c(-c4ccco4)nc(N)nc32)c(F)c1
3 nM | 45 nM | 254 nM | 360 nM | Cc1cccc(Cn2nnc3c(-c4ccco4)nc(N)nc32)c1
2.3 nM | 110 nM | 79 nM | 619 nM | Nc1nc(-c2ccco2)c2nnn(Cc3cccc(F)c3F)c2n1
1.9 nM | 42 nM | 24 nM | 203 nM | Nc1nc(-c2ccco2)c2nnn(Cc3c(F)cccc3F)c2n1
